Experimental data reported in ChEMBL document CHEMBL3044608, “Synthesis and fungicidal activity of hydrazones containing 4-methylbenzo[d]thiazole moiety” (2012).

Experiments:
Type in all cases: functional
Fusarium graminearum = test: microbe, parasite or virus in culture; settings: read-out: GI
Botrytis cinerea = test: microbe, parasite or virus in culture; settings: read-out: GI
Description: Fungicidal activity against Botryotinia fuckeliana assessed as inhibition rate of circle mycelium growth at 500 ug/ml

Ustilaginoidea = test: microbe, parasite or virus in culture; settings: read-out: GI
Description: Fungicidal activity against Ustilaginoidea oryzae assessed as inhibition rate of circle mycelium growth at 500 ug/ml

Sclerotinia sclerotiorum = test: microbe, parasite or virus in culture; settings: read-out: GI
Description: Fungicidal activity against Sclerotinia sclerotiorum assessed as inhibition rate of circle mycelium growth at 500 ug/ml

Phytophthora capsici = test: microbe, parasite or virus in culture; settings: read-out: GI
Description: Fungicidal activity against Phytophthora capsici assessed as inhibition rate of circle mycelium growth at 500 ug/ml

Alternaria alternata = test: microbe, parasite or virus in culture; settings: read-out: GI
Description: Fungicidal activity against Alternaria alternata assessed as inhibition rate of circle mycelium growth at 500 ug/ml

Rhizoctonia solani [1] = test: microbe, parasite or virus in culture; settings: read-out: GI
Description: Fungicidal activity against Rhizoctonia solani assessed as inhibition rate of circle mycelium growth at 500 ug/ml

Rhizoctonia solani [2] = settings: at 400 µg/mL
Description: Fungicidal activity against Rhizoctonia solani assessed as inhibition rate of circle mycelium growth at 400 ug/ml relative to control

Rhizoctonia solani [3] = settings: at 200 µg/mL
Description: Fungicidal activity against Rhizoctonia solani assessed as inhibition rate of circle mycelium growth at 200 ug/ml relative to control

Rhizoctonia solani [4] = settings: at 100 µg/mL
Description: Fungicidal activity against Rhizoctonia solani assessed as inhibition rate of circle mycelium growth at 100 ug/ml relative to control

Row | Compound | inhibition of growth at 500 µg/mL (Fusarium graminearum) | inhibition of growth at 500 µg/mL (Botrytis cinerea) | inhibition of growth at 500 µg/mL (Ustilaginoidea) | inhibition of growth at 500 µg/mL (Sclerotinia sclerotiorum) | inhibition of growth at 500 µg/mL (Phytophthora capsici) | inhibition of growth at 500 µg/mL (Alternaria alternata) | inhibition of growth at 500 µg/mL (Rhizoctonia solani [1]) | Efficacy (Rhizoctonia solani [2]) | Efficacy (Rhizoctonia solani [3]) | Efficacy (Rhizoctonia solani [4])
1 | C/C(=N\Nc1nc2c(C)cccc2s1)c1cccc(Cl)c1 | 0% | 0% | 0% | 43.8% | 0% | 0% | 0% | – | – | –
2 | Cc1cccc2sc(NN)nc12 | 0% | 22.3% | 0% | 16.2% | 0% | 13.6% | 0% | – | – | –
3 | C/C(=N\Nc1nc2c(C)cccc2s1)c1c(F)cccc1F | 0% | 0% | 0% | 0% | 0% | 0% | 95% | 65% | 45% | 35%
4 | C/C(=N\Nc1nc2c(C)cccc2s1)C(C)C | 0% | 70.8% | 5% | 90.6% | 0% | 56.5% | 60% | – | – | –
5 | C/C(=N\Nc1nc2c(C)cccc2s1)c1ccc(Br)cc1 | 0% | 0% | 0% | 46.9% | 0% | 0% | 50% | – | – | –
6 | C/C(=N\Nc1nc2c(C)cccc2s1)c1ccc([N+](=O)[O-])cc1 | 0% | 0% | 0% | 0% | 0% | 0% | 90% | – | – | –
7 | CCCC1COC(Cn2cncn2)(c2ccc(Cl)cc2Cl)O1 (stereo not drawn) [PROPICONAZOLE] | 0% | 0% | 0% | 87.5% | 0% | 0% | 90% | 90% | 60% | 40%
8 | COc1ccc(/C(C)=N/Nc2nc3c(C)cccc3s2)cc1 | 0% | 37.5% | 0% | 50% | 0% | 30.4% | 95% | 50% | 20% | 10%
9 | Cc1cccc2sc(NN=C3CCCCC3)nc12 | 0% | 66.7% | 0% | 43.8% | 0% | 47.8% | 0% | – | – | –
10 | CC/C(C)=N/Nc1nc2c(C)cccc2s1 | 0% | 70.8% | 40% | 87.5% | 0% | 47.8% | 90% | – | – | –
11 | C/C(=N\Nc1nc2c(C)cccc2s1)c1ccc(Cl)cc1 | 0% | 0% | 0% | 9.4% | 0% | 0% | 0% | – | – | –
12 | C/C(=N\Nc1nc2c(C)cccc2s1)c1ccccc1 | 0% | 0% | 0% | 31.3% | 0% | 21.7% | 0% | – | – | –
13 | C/C(=N\Nc1nc2c(C)cccc2s1)c1ccc(C)cc1 | 0% | 0% | 5% | 28.1% | 0% | 0% | 30% | – | – | –
14 | COc1ccccc1/C(C)=N/Nc1nc2c(C)cccc2s1 | 0% | 0% | 0% | 3.1% | 0% | 0% | 60% | – | – | –
15 | C/C(=N\Nc1nc2c(C)cccc2s1)c1ccc(F)cc1 | 0% | 0% | 0% | 28.1% | 0% | 0% | 0% | – | – | –
16 | Cc1cccc2sc(NN=C3CCCC3)nc12 | 36.8% | 70.8% | 25% | 62.5% | 0% | 52.2% | 85% | – | – | –
17 | CC(C)=NNc1nc2c(C)cccc2s1 | 0% | 70.8% | 20% | 59.4% | 0% | 47.8% | 0% | – | – | –
18 | Cc1cccc2sc3nncn3c12 [TRICYCLAZOLE] | 13.6% | 52.8% | 0% | 72.7% | 27.8% | 0% | 85% | 57% | 33% | 22%
